This is an account of results in PubChem BioAssay (NCI).

“And” between values parts separate entries of the source, which are not always exact repeats. Identical values can stand only once.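 Each compound was tested at five concentrations against cells in 96-well plates for 48 hours. Here, GI50 denotes the concentration required for 50% inhibition of growth. TGI marks complete inhibition of growth.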 Some results are limits rather than exact numbers.

Some test systems named below: DLD-1 colon; DMS 114 small cell lung; DMS 273 small cell lung; KM20L2 colon; LXFL 529 NSCLC; M19-MEL melanoma; RXF-631 renal; SNB-78 CNS; MDA-N; P388/ADR leukemia; SN12K1 renal.
What all share (experiment): NCI tumour cell line growth inhibition, 48 h

`COc1ccc2c3c(n(Cc4ccccc4)c(=O)c2c1)-c1cc(OC)c(OC)cc1C3C` (configuration not stated): the TGI in the experiment with DLD-1 colon was > 100 µM; with DMS 114 small cell lung it was > 89.2 µM; with DMS 273 small cell lung it was 38.6 µM; with KM20L2 colon it was > 100 µM; with LXFL 529 NSCLC, > 53 µM; with M19-MEL melanoma, > 73.1 µM. Further, the TGI in the experiment with RXF-631 renal and with SNB-78 CNS was > 100 µM in each case.

For the molecule `CN(N=O)C(=O)N[C@@H](C=O)[C@@H](O)[C@H](O)[C@H](O)CO`, the GI50 with DLD-1 colon is > 750 µM; in the experiment with DMS 114 small cell lung, > 750 µM; with DMS 273 small cell lung, > 750 µM; in the experiment on M19-MEL melanoma, 619 µM. In addition, the TGI is > 750 µM in the experiment with DLD-1 colon; 599 µM and > 750 µM with DMS 114 small cell lung; 575 µM and > 750 µM in the experiment on DMS 273 small cell lung; > 750 µM with KM20L2 colon; > 750 µM in the experiment with LXFL 529 NSCLC; 629 µM and > 750 µM with M19-MEL melanoma. Moreover, the TGI in the experiment on MDA-N was > 750 µM; with P388/ADR leukemia, 635 µM; in the experiment on SN12K1 renal, 546 µM; in the experiment on SNB-78 CNS it was 608 µM.
